Tested on: CD-1 mice
Test: In vivo luciferase expression in mice injected with LNP:mRNA (Fluc mRNA capped with cap analog), whole-body bioluminescence imaging
Details: female CD-1 mice, LNP:mRNA 1 mg/kg single tail-vein bolus; for in vivo luciferase expression (translation) as compared to the same compound lacking the 3′OMe group on the m7G: pairwise comparison 3′OMe vs 3′OH on m7G, FIG. 4 / FIG. 2; for in vivo luciferase expression as compared to m7GpppA2′OMepG (Control): integrated flux from 3-48 hours, FIG. 2
Experimental: Female CD-1 mice of 8-9 weeks old were randomized into groups of five animals based on body weight at the beginning of the study (Charles River Laboratories, Discovery Research Services North Carolina). Lipid nanoparticle formulations including mRNA (capped using a cap analog recited in Table 1, N1-methylpseudouridine-5′-Triphosphate (N1-me-PsU) modified firefly luciferase (Fluc) mRNA) (LNP:mRNA) test articles were diluted in PBS to achieve 1 mg/kg delivery in a single bolus by tail-vein injection. The body weight of each mouse was measured once a day for the duration of the study and two blood draws were taken for serum analysis by Mouse Cytokine/Chemokine 26-Plex ProcartaPlex Panel 1 by Luminex platform (Thermo Fisher Scientific; Waltham, MA). Luciferase activity was measured by whole-body bioluminescence imaging on IVIS Spectrum CT system by Perkin Elmer (Greenville, SC) at six time points post mRNA injection (3 hours, 6 hours, 9 hours, 12 hours, 24 hours, and 48 hours hours post-injection). D-luciferin was delivered by intraperitoneal injection 10 minutes prior to each imaging session (150 mg/kg total). The measured luciferase expression results are shown in FIG. 2, showing the integrated flux from 3-48 hours. […] Luminescence intensity scale is on the left.

Row | Compound | in vivo luciferase expression (translation) as compared to the same compound lacking the 3′OMe group on the m7G | in vivo luciferase expression as compared to m7GpppA2′OMepG (Control)
1 | COC1[C@@H](OP(=O)(O)OC[C@H]2O[C@@H](n3cnc4c(=O)[nH]c(N)nc43)C(O)[C@H]2O)[C@@H](/C=C/P(=O)(O)OP(=O)([O-])OP(=O)(O)OC[C@H]2O[C@@H](n3c[n+](C)c4c(=O)[nH]c(N)nc43)C(O)[C@H]2OC)O[C@H]1n1cnc2c(N)ncnc21 (stereo partly drawn) [Compound 5, ^m7G3′-OMepppA2′OMe-5′vinylpG] | increased luciferase expression in vivo | –
2 | COC1C(OP(=O)(O)OC[C@H]2O[C@@H](n3cnc4c(=O)[nH]c(N)nc43)C(O)C2O)[C@@H](COP(=O)(O)OP(=O)([O-])OP(=O)(O)OC[C@]23COC(C2O)[C@H](n2c[n+](C)c4c(=O)[nH]c(N)nc42)O3)O[C@H]1n1cnc2c(N)ncnc21 (stereo partly drawn) [Compound 32, ^m7G2′4′LNApppA2′OMepG] | – | increased in vivo luciferase expression
3 | COC1C(OP(=O)(O)OC[C@H]2O[C@@H](n3cnc4c(=O)[nH]c(N)nc43)C(O)C2O)[C@@H](COP(=O)(O)OP(=O)([O-])OP(=O)(O)OC[C@H]2O[C@@H](n3c[n+](C)c4c(=O)[nH]c(N)nc43)C(O)C2OC)O[C@H]1n1cnc2c(N)nc(N)nc21 (stereo in doubt) [Compound 8, ^m7G3′OMeppp(diaminopurine)2′OMepG] | increased luciferase expression in vivo | increased in vivo luciferase expression
4 | CNc1ncnc2c1ncn2[C@@H]1O[C@H](COP(=O)(O)OP(=O)([O-])OP(=O)(O)OC[C@H]2O[C@@H](n3c[n+](C)c4c(=O)[nH]c(N)nc43)C(O)C2OC)C(OP(=O)(O)OC[C@H]2O[C@@H](n3cnc4c(=O)[nH]c(N)nc43)C(O)C2O)C1OC (stereo partly drawn) [Compound 30, ^m7G3′OMeppp^m6A2′OMepG] | increased luciferase expression in vivo | increased in vivo luciferase expression
5 | COC1C(O)[C@H](n2c[n+](C)c3c(=O)[nH]c(N)nc32)O[C@@H]1COP(=O)(O)OP(=O)([O-])OP(=O)(O)OC[C@]12COC(C1OP(=O)(O)OC[C@H]1O[C@@H](n3cnc4c(=O)[nH]c(N)nc43)C(O)C1O)[C@H](n1cnc3c(N)ncnc31)O2 (stereo in doubt) [Compound 2, ^m7G3′OMepppA2′,4′-LNApG] | increased luciferase expression in vivo | increased in vivo luciferase expression
6 | C[n+]1cn([C@@H]2O[C@H](COP(=O)(O)OP(=O)([O-])OP(=O)(O)OC[C@]34COC(C3OP(=O)(O)OC[C@H]3O[C@@H](n5cnc6c(=O)[nH]c(N)nc65)C(O)C3O)[C@H](n3cnc5c(N)ncnc53)O4)C(O)C2O)c2nc(N)[nH]c(=O)c21 (stereo in doubt) [Compound 1, ^m7GpppA2′,4′-LNApG] | – | increased in vivo luciferase expression
7 | COC1C(OP(=O)(O)OC[C@H]2O[C@@H](n3cnc4c(=O)[nH]c(N)nc43)C(O)C2O)[C@@H](COP(=O)(O)OP(=O)([O-])OP(=O)(O)OC[C@H]2O[C@@H](n3c[n+](C)c4c(=O)[nH]c(N)nc43)C(OC)C2OC)O[C@H]1n1cnc2c(N)ncnc21 (stereo in doubt) [Compound 25, ^m7G2′OMe3′OMepppA2′OMepG] | increased luciferase expression in vivo | –
8 | COC1C(OP(=O)(O)OC[C@H]2O[C@@H](n3cnc4c(=O)[nH]c(N)nc43)C(O)C2O)[C@@H](COP(=O)(O)OP(=O)([O-])OP(=O)(O)OC[C@H]2O[C@@H](n3c[n+](C)c4c(=O)[nH]c(N)nc43)C(O)C2OC)O[C@H]1n1cnc2c(N)ncnc21 (stereo partly drawn) [Compound 29, ^m7G3′OmepppA2′OMepG] | increased luciferase expression in vivo | increased in vivo luciferase expression

Reference: patent publication US20250108066A1, “TRINUCLEOTIDE CAP ANALOGS AND METHODS OF USE THEREOF” (TriLink BioTechnologies, LLC, priority 2022, published 2025)
